Literature values in patent US20240065977A1, “MYDRIATIC AND ANTI-MUSCARINIC AGENT COMPOSITION FOR OPHTHALMIC USE” (SENTISS PHARMA PRIVATE LIMITED, priority 2020, published 2024).
Like-named read-outs stand apart in the source and are kept apart here.

System: pupil

**Q.** Which “Mydriasis Peak” value (Concentration 0.5%-3%) does the source give for CN1[C@@H]2CC[C@H]1C[C@@H](OC(=O)C(CO)c1ccccc1)C2 (stereo partly drawn) [Atropine] here?
**A.** The value was 30 to 40 min.

**Q.** And the “Mydriasis Recovery” value (Concentration 0.5%-3%)?
**A.** Its value is 7 to 12 days.

**Q.** And the duration of action (pupillary dilatation)?
**A.** The duration of action was no less than 7 days.

**Q.** What about the onset of action (pupillary dilatation) of the same compound?
**A.** The onset of action was 40 min.

**Q.** For CN1[C@@H]2CC[C@H]1C[C@@H](OC(=O)C(O)c1ccccc1)C2 (stereo partly drawn) [Homatropine], which “Mydriasis Peak” value (Concentration 2%-5%) is on record?
**A.** The value was 40 to 60 min.

**Q.** What about the “Mydriasis Recovery” value (Concentration 2%-5%) of the same compound?
**A.** Its value is 1 to 3 days.
